# Test results: US20250108051A1, “THERAPEUTIC AGENT FOR CANCER” (TOHOKU UNIVERSITY, priority 2022, published 2025)
# Legend:
# [1] = system: 8505C (BRAF V600E-mutated thyroid cancer cell line); assay: MTT assay, encorafenib + binimetinib with ATRA; assay type: cell-based; settings: ATRA 0, 1.0 or 10 μM; encorafenib and binimetinib 0 to 10 μM
# HT29 cell line [2] = assay: Annexin V-PI apoptosis assay; assay type: cell-based; settings: TRE 10 μM, ENC 10 nM, BIN 10 nM, 72 hours, TRE vs DMSO
# Procedure: Thereafter, the cells were collected, washed with PBS, and stained with Annexin V and PI using Annexin V-FITC Apoptosis Detection Kit (Nakalai Tesque). Apoptotic cells were detected using CytoFLEX LX. A proportion of cells positive for Annexin V was calculated as a proportion of apoptotic cells. The above was performed three times as an independent experiment. Student's test was used for a significant difference test.
# RKO cells = assay: Screening of SCADS Inhibitor Kit with dabrafenib + trametinib, cell viability by MTT assay; assay type: cell-based
# Procedure: As the SCADS Inhibitor Kit, one provided by the Molecular Profiling Committee of the Grants-in-Aid for Scientific Research “Advanced Animal Model Support (AdAMS)” in the innovation field of the Ministry of Education, Culture, Sports, Science and Technology was used.
# The RKO cells were seeded on a 96-well plate with the number of cells of 2.7×10^3 cells/well, and 24 hours later, SCADS Inhibitor Kit 4 ver 2.3 was administered at 500 nM. Two plates treated in the same manner were prepared, and 50 nM of the BRAF inhibitor Dabrafenib and 5 nM of the MEK inhibitor Trametinib were administered to one of the plates. After incubation at 37° C. for 72 hours after the drug administration, cell viability was measured by an MTT assay (described below). The cell viability was evaluated for RKO cells administered with only DMSO.
# The MTT (Thiazolyl blue tetrazolium bromide) assay was performed as follows.
# RKO cells were seeded on a 96-well plate with the number of cells of 1.5×10^3 cells/well, CO115 cells were seeded on a 96-well plate with the number of cells of 2.5×10^3 cells/well, and HT29 cells and WiDR cells were respectively seeded on 96-well plates with the number of cells of 6×10^3 cells/well. After incubation for about 24 hours until the cell density reached 40% to 60%, the drug was administered. […]
# The synergistic effect was evaluated using Combination Index. […]
# HT29 cell line [3] = assay: Subcutaneous transplanted tumor mouse model (Test Example 13); assay type: in vivo
# Procedure: The in vivo antitumor effect and toxicity generated by combined use of a compound acting on a retinoid receptor, a BRAF inhibitor, an MEK inhibitor, and an anti-EGFR antibody, or a BRAF inhibitor and an anti-EGFR antibody were evaluated by a mouse model subcutaneous transplanted with a HT29 cell line.
# Female nude mice (BALB/c-nu) were purchased from The Jackson Laboratory Japan, and raised in a specific pathogen-free environment. The cultured HT29 cell line was collected with trypsin, and a culture medium and a Corning Matrigel basement membrane matrix (Corning) were mixed at a volume ratio of 1:1 so as to reach 1×10^7 cells/mL, followed by suspension. Into a left abdominal region of each mouse was subcutaneously implanted 0.1 mL of cell suspension. When tumor volumes reached 150 mm^3 to 200 mm^3, mice were randomly divided into a vehicle group, a TRE single group, an ENC+CET group, a three-drug combination (TRE+ENC+CET) group including TRE and ENC+CET, an ENC+BIN+CET group, or a four-drug combination (TRE+ENC+BIN+CET) group including TRE and ENC+BIN+CET. TRE, ENC, and BIN were dissolved in Corn oil (FUJIFILM Wako Pure Chemical Industries, Ltd.), and further subjected to ultrasonic treatment using Bioruptor UCW-310 (Sonicbio. Co. Ltd.) to prepare a drug solution. ENC, BIN, and TRE were orally administrated by force once a day for 28 days at doses of 5 mg/kg, 1.75 mg/kg, and 10 mg/kg, respectively. […] The tumor size and the body weight were measured every three days from the start of the therapy. […]
# Subsequently, in order to evaluate the influence of the combined use of TRE and ENC+BIN+CET or ENC+CET on in vivo tumor proliferation, a Ki-67 labeling index was calculated using a resected tumor at the end of the therapy.
# Specifically, tumors were extracted from 4 to 6 mice randomly selected from each therapy group. […] Five fields of view for a central part of the tumor without tumor necrosis were selected, and 500 or more cells in total were counted in each group. The Ki-67 labeling index was calculated as the number of Ki-67 positive cells/the total number of cells.
structure (smiles),measurement,setting,value
"CC1=C(/C=C/C(C)=C/C=C/C(C)=C/C(=O)O)C(C)(C)CCC1 [ATRA, all-trans retinoic acid]",cell viability with encorafenib and binimetinib as a function of ATRA concentration,[1],"the higher the concentration of ATRA is, the lower the cell viability is"
same,apoptotic cell proportion (Annexin V positive),HT29 cell line [2],no significant change
same,proliferation inhibition,RKO cells; ATRA alone,less than 20%
same,viability at 0.5 µM,"RKO cells; Homo sapiens, RKO, 72 hours, kit compound (ATRA) 0.5 μM, DAB 50 nM, TRA 5 nM, relative to DMSO",101%
same,mouse body weights depending on the presence or absence of TRE,HT29 cell line [3]; 28 days after the therapy,no significant difference
same,tumor volume,"HT29 cell line [3]; 28 days from the start of the therapy, ENC 5 mg/kg, BIN 1.75 mg/kg, TRE 10 mg/kg oral once a day, CET 20 mg/kg i.p. twice a week",1156 mm^3
same,Ki-67 labeling index,"HT29 cell line [3]; resected tumor at the end of the therapy, TRE vs vehicle, combinations vs same group without TRE",No significant difference
